From the supplement of paper PMC11061612

Legend:
[1] = test system: NCI-H1781 (Lung Adenocarcinoma); experiment: combination Emax (second highest fraction inhibited in the dose matrix, 72 h); higher = more inhibition; extreme values may be limits of the assay
Procedure, shortened: (§1)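 Cell lines in DMEM/F12 or RPMI with 10% FBS were plated in 1536-well plates, held 24 hours at 37°C, 5% CO2, then given two-drug dose matrices for 72 hours (DMSO typically 0.2%). Viability was read by CellTiter-Glo 2.0 luminescence and scaled as inhibition from 0 (vehicle wells) to 1 (blank wells). Combination Emax is the second-highest inhibition in the matrix; Bliss excess is observed combination effect minus expected EA + EB − EA·EB, EA and EB being single-agent effects.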

[2] = test system: NB(TU)1-10 (Neuroblastoma); experiment: as above
Procedure, shortened: as §1

[3] = test system: SW756 (Cervical Carcinoma); experiment: as above
Procedure, shortened: as §1

[4] = test system: NB(TU)1-10 (Neuroblastoma); experiment: Bliss excess, mean over the matrix (fraction); higher = more synergy
Procedure, shortened: as §1

[5] = test system: NCI-H211 (Small Cell Lung Carcinoma); experiment: combination Emax (second highest fraction inhibited in the dose matrix, 72 h); higher = more inhibition; extreme values may be limits of the assay
Procedure, shortened: as §1

[6] = test system: NCI-H211 (Small Cell Lung Carcinoma); experiment: Bliss excess, mean over the matrix (fraction); higher = more synergy
Procedure, shortened: as §1
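Throughout, for Bliss excess, mean over the matrix: after 72 h of two-drug dosing.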

## COc1cc2c(cc1OCCCCCOc1cc3c(cc1OC)C(=O)N1C=C(C)C[C@H]1C=N3)N=C[C@@H]1CC(C)=CN1C2=O [SG3199] + O=C(c1cc(Cc2n[nH]c(=O)c3ccccc23)ccc1F)N1CCN(C(=O)C2CC2)CC1 [Olaparib] (first compound max 0.001 µM, 7x7, partner max 10 µM)
[1]
  combination Emax: 0.45
[2]
  combination Emax: 0.187
[3]
  combination Emax: 0.149
[4]
  Bliss excess: -0.0149

## CN(C)CCCOc1ccc(-c2ccc3ncc4c(c3c2)n(C2CCOCC2)c(=O)n4C)cn1 [AZD0156] + C[C@@H]1COCCN1C2=NC(=NC(=C2)C3(CC3)[S@](=N)(=O)C)C4=C5C=CNC5=NC=C4 [AZD6738] (first compound max 1 µM, 7x7, partner max 10 µM)
[1]
  combination Emax: 0.346
[2]
  combination Emax: 0.798
[3]
  combination Emax: 0.322
[4]
  Bliss excess: -0.0026

## C=CCn1c(=O)c2cnc(Nc3ccc(N4CCN(C)CC4)cc3)nc2n1-c1cccc(C(C)(C)O)n1 [AZD1775] + C[C@@H]1COCCN1C2=NC(=NC(=C2)C3(CC3)[S@](=N)(=O)C)C4=C5C=CNC5=NC=C4 [AZD6738] (first compound max 1 µM, partner max 10 µM)
[1]
  combination Emax: 0.65
[2]
  combination Emax: 0.875
[3]
  combination Emax: 0.425
[4]
  Bliss excess: 0.0985

## COc1cccc(OCCCN)c1-c1cc(Nc2cnc(C#N)cn2)n[nH]1 [Prexasertib] + CN(C)CCCOc1ccc(-c2ccc3ncc4c(c3c2)n(C2CCOCC2)c(=O)n4C)cn1 [AZD0156] (first compound max 1 µM, 7x7, partner max 1 µM)
[1]
  combination Emax: 0.45
[2]
  combination Emax: 0.934
[3]
  combination Emax: 0.379
[4]
  Bliss excess: -0.0519

## COc1cccc2c1C(=O)c1c(O)c3c(c(O)c1C2=O)C[C@@](O)(C(=O)CO)C[C@@H]3O[C@H]1C[C@H](N)[C@H](O)[C@H](C)O1 [Doxorubicin] + Cc1cc2ncnn2cc1Nc1ncc2c(n1)n(C1CCOCC1)c(=O)n2C [AZD7648] (first compound max 1 µM, 7x7, partner max 10 µM)
[1]
  combination Emax: 0.932
[2]
  combination Emax: 0.793
[3]
  combination Emax: 0.514
[4]
  Bliss excess: 0.0954

## CCc1c2c(nc3ccc(O)cc13)-c1cc3c(c(=O)n1C2)COC(=O)[C@]3(O)CC [SN-38] + CN(C)CCCOc1ccc(-c2ccc3ncc4c(c3c2)n(C2CCOCC2)c(=O)n4C)cn1 [AZD0156] (first compound max 0.3 µM, 7x7, partner max 1 µM)
[1]
  combination Emax: 0.99
[2]
  combination Emax: 0.805
[3]
  combination Emax: 0.79
[4]
  Bliss excess: -0.0787

## C=CCn1c(=O)c2cnc(Nc3ccc(N4CCN(C)CC4)cc3)nc2n1-c1cccc(C(C)(C)O)n1 [AZD1775] + O=C(c1cc(Cc2n[nH]c(=O)c3ccccc23)ccc1F)N1CCN(C(=O)C2CC2)CC1 [Olaparib] (first compound max 1 µM, partner max 10 µM)
[1]
  combination Emax: 0.538
[2]
  combination Emax: 0.815
[3]
  combination Emax: 0.35
[4]
  Bliss excess: 0.0461

## Cc1cc2ncnn2cc1Nc1ncc2c(n1)n(C1CCOCC1)c(=O)n2C [AZD7648] + CCN(CCO)CCCOc1ccc2c(Nc3cc(CC(=O)Nc4cccc(F)c4)[nH]n3)ncnc2c1 [AZD2811] (first compound max 10 µM, 7x7, partner max 1 µM)
[1]
  combination Emax: 0.671
[2]
  combination Emax: 0.297
[3]
  combination Emax: 0.108
[4]
  Bliss excess: -0.0403

## COc1nnc2ccc(N3CCC(c4ccc(OCCN5CCN(C)C(=O)[C@H]5C)cc4)CC3)nn12 [AZD5153] + Cn1cnc2c(F)c(Nc3ccc(Br)cc3Cl)c(C(=O)NOCCO)cc21 [Selumetinib] (first compound max 1 µM, 7x7, partner max 10 µM)
[5]
  combination Emax: 1
[1]
  combination Emax: 0.327
[3]
  combination Emax: 0.534
[6]
  Bliss excess: 0.0477

## NC1(C(=O)N[C@@H](CCO)c2ccc(Cl)cc2)CCN(c2ncnc3[nH]ccc23)CC1 [Capivasertib] + CCN(CCO)CCCOc1ccc2c(Nc3cc(CC(=O)Nc4cccc(F)c4)[nH]n3)ncnc2c1 [AZD2811] (first compound max 10 µM, 7x7, partner max 1 µM)
[5]
  combination Emax: 0.944
[1]
  combination Emax: 0.799
[3]
  combination Emax: 0.287
[6]
  Bliss excess: -0.0107

## NC1(C(=O)N[C@@H](CCO)c2ccc(Cl)cc2)CCN(c2ncnc3[nH]ccc23)CC1 [Capivasertib] + CC(=O)c1c(C)c2cnc(Nc3ccc(N4CCNCC4)cn3)nc2n(C2CCCC2)c1=O [Palbociclib] (first compound max 10 µM, 7x7, partner max 10 µM)
[5]
  combination Emax: 0.59
[1]
  combination Emax: 0.479
[3]
  combination Emax: 0.389
[6]
  Bliss excess: 0.0926
